In patent publication US20190100534A1, “Cephem Compounds with Latent Reactive Groups” (Gladius Pharmaceuticals, Inc., priority 2017, published 2019):

Legend:
Type in all cases: cell-based
[1] = system: Pseudomonas aeruginosa (PA); experiment: MIC determination; conditions: Pseudomonas aeruginosa; PA; CAMH broth, 20 μM Apo-Transferrin, 37° C., 18 hours; read-out: Minimum Inhibitory Concentrations, PA
Method: (§1) Sterile technique was used throughout these experiments. Suspensions of organisms were removed from storage (−80° C.) and partially thawed. Partially thawed organisms (1 μL) were inoculated into 3 mL sterile LB Broth in a sterile culture tube and capped, then cultured at 37° C. with shaking for 4-5 hours until the optical density at 600 nm (OD600) was greater than 0.1 on a single beam spectrophotometer.
(§2) The concentration of organisms was adjusted to 0.08-0.1 OD600 (0.5 McFarland units) by dilution with sterile cation-adjusted Meuller-Hinton (CAMH) broth. The suspensions were used within 30 minutes of preparation.
(§3) A stock solution was made of each test compound by measuring 6.4 mg of the compound on an analytical balance and dissolving it in DMSO (1 mL) to get a transparent solution. The solutions were stored at −20° C. and thawed prior to use.
(§4) Sterile CAMH broth (200 μL) containing 20 μM Apo-Transferrin was pipetted into the first row of 8 columns of a sterile, round-bottomed, transparent, 96-well microplate using an 8-channel pipette equipped with sterile tips. One hundred μL was pipetted into the wells of the remaining 11 rows.
(§5) With an 8-channel pipette equipped with sterile tips, 100 μL of the first row solution was transferred to the second row and mixed. The process was repeated for the second to third rows and continued through row 11. One hundred μL from row 11 was removed and discarded so that all 12 rows contained 100 μL. Row 12 contained no compound and rows 1-11 contained 64, 32, 16, 8, 4, 2, 1, 0.5, 0.25, 0.125, […] of a given compound.
(§6) Inoculant suspensions (0.5 μL) were added to the 12 wells of each column. The plates were then covered and incubated at 37° C. overnight for 18 hours.
(§7) For each organism the MIC was determined by identifying the transparent well with the lowest test compound concentration.

[2] = system: Pseudomonas aeruginosa PA (RR-1); experiment: MIC determination; conditions: Pseudomonas aeruginosa; PA (RR-1); CAMH broth, 20 μM Apo-Transferrin, 37° C., 18 hours; read-out: Minimum Inhibitory Concentrations, PA (RR-1)
Method: as §1, §2, §3, §4, §5, §6, §7

[3] = system: Pseudomonas aeruginosa PA (RR-2); experiment: MIC determination; conditions: Pseudomonas aeruginosa; PA (RR-2); CAMH broth, 20 μM Apo-Transferrin, 37° C., 18 hours; read-out: Minimum Inhibitory Concentrations, PA (RR-2)
Method: as §1, §2, §3, §4, §5, §6, §7

[4] = system: Pseudomonas aeruginosa PA (URMC-2); experiment: MIC determination; conditions: Pseudomonas aeruginosa; PA (URMC-2); CAMH broth, 20 μM Apo-Transferrin, 37° C., 18 hours; read-out: Minimum Inhibitory Concentrations, PA (URMC-2)
Method: as §1, §2, §3, §4, §5, §6, §7

[5] = system: Pseudomonas aeruginosa PA (URMC-3); experiment: MIC determination; conditions: Pseudomonas aeruginosa; PA (URMC-3); CAMH broth, 20 μM Apo-Transferrin, 37° C., 18 hours; read-out: Minimum Inhibitory Concentrations, PA (URMC-3)
Method: as §1, §2, §3, §4, §5, §6, §7

[6] = system: Pseudomonas aeruginosa PA-RR-(980151052); experiment: MIC determination; conditions: Pseudomonas aeruginosa; PA-RR-(980151052); CAMH broth, 20 μM Apo-Transferrin, 37° C., 18 hours; read-out: Minimum Inhibitory Concentrations, PA-RR-(980151052)
Method: as §1, §2, §3, §4, §5, §6, §7

[7] = system: Pseudomonas aeruginosa PA-RR-(98023895); experiment: MIC determination; conditions: Pseudomonas aeruginosa; PA-RR-(98023895); CAMH broth, 20 μM Apo-Transferrin, 37° C., 18 hours; read-out: Minimum Inhibitory Concentrations, PA-RR-(98023895)
Method: as §1, §2, §3, §4, §5, §6, §7

[8] = system: Pseudomonas aeruginosa PA-RR-(G7294437); experiment: MIC determination; conditions: Pseudomonas aeruginosa; PA-RR-(G7294437); CAMH broth, 20 μM Apo-Transferrin, 37° C., 18 hours; read-out: Minimum Inhibitory Concentrations, PA-RR-(G7294437)
Method: as §1, §2, §3, §4, §5, §6, §7

[9] = system: Pseudomonas aeruginosa PA-RR-(G7304100); experiment: MIC determination; conditions: Pseudomonas aeruginosa; PA-RR-(G7304100); CAMH broth, 20 μM Apo-Transferrin, 37° C., 18 hours; read-out: Minimum Inhibitory Concentrations, PA-RR-(G7304100)
Method: as §1, §2, §3, §4, §5, §6, §7

[10] = system: Pseudomonas aeruginosa PA-RR-(G7305586); experiment: MIC determination; conditions: Pseudomonas aeruginosa; PA-RR-(G7305586); CAMH broth, 20 μM Apo-Transferrin, 37° C., 18 hours; read-out: Minimum Inhibitory Concentrations, PA-RR-(G7305586)
Method: as §1, §2, §3, §4, §5, §6, §7

[11] = system: Pseudomonas aeruginosa PA-RR-(G8062859); experiment: MIC determination; conditions: Pseudomonas aeruginosa; PA-RR-(G8062859); CAMH broth, 20 μM Apo-Transferrin, 37° C., 18 hours; read-out: Minimum Inhibitory Concentrations, PA-RR-(G8062859)
Method: as §1, §2, §3, §4, §5, §6, §7

[12] = system: Pseudomonas aeruginosa PA-RR-(purple Fre D); experiment: MIC determination; conditions: Pseudomonas aeruginosa, CAMH broth, 20 μM Apo-Transferrin, 37° C., 18 hours, read-out: Minimum Inhibitory Concentrations, PA-RR-(purple Fre D)
Method: as §1, §2, §3, §4, §5, §6, §7

[13] = system: Isogenic E. coli J58 strain carrying SHV-1; experiment: MIC determination, isogenic E. coli strains; conditions: Escherichia coli, 18 h, read-out: Mimimum Inhibitory Concentrations, SHV-1
Procedure, shortened: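 MIC is the lowest compound concentration leaving a transparent well after overnight (18 h) incubation at 37 °C. The test strain was E. coli J53 expressing plasmid-borne SHV-1 beta-lactamase from pBC-SK(+), adjusted to 0.5 McFarland. Compounds were twofold serially diluted, starting at 64 μg/mL, in CAMH broth supplemented with 20 μM apo-transferrin.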

[14] = system: Isogenic E. coli J58 strain carrying KPC-2; experiment: MIC determination, isogenic E. coli strains; conditions: Escherichia coli, 18 h, read-out: Mimimum Inhibitory Concentrations, KPC-2
Procedure, shortened: (§8)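 Strain: E. coli J53 electroporated with a pBC-SK(+) plasmid encoding the KPC enzyme, selected on ampicillin. Twofold dilutions ([…]) were made in CAMH broth containing 20 μM apo-transferrin and inoculated at 0.5 McFarland. After overnight (18 h) growth at 37 °C, MIC was read as the lowest concentration with no visible growth.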

[15] = system: Isogenic E. coli J58 strain carrying KPC-3; experiment: MIC determination, isogenic E. coli strains; conditions: Escherichia coli, 18 h, read-out: Mimimum Inhibitory Concentrations, KPC-3
Procedure, shortened: as §8

[16] = system: Isogenic E. coli J58 strain carrying NDM-1; experiment: MIC determination, isogenic E. coli strains; conditions: Escherichia coli, 18 h, read-out: Mimimum Inhibitory Concentrations, NDM-1
Procedure, shortened: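 Broth microdilution was run in cation-adjusted Mueller-Hinton broth supplemented with 20 μM apo-transferrin, using a 64 μg/mL top concentration diluted twofold. The inoculum was NDM-1-expressing E. coli J53 (pBC-SK(+) plasmid) at 0.5 McFarland. After overnight incubation (18 h, 37° C), the lowest compound concentration preventing visible growth was recorded as the MIC.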

[17] = system: Isogenic E. coli J58 strain carrying VIM-2; experiment: MIC determination, isogenic E. coli strains; conditions: for MIC: Escherichia coli, 18 h, read-out: Mimimum Inhibitory Concentrations, VIM-2
Procedure, shortened: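 Broth microdilution in cation-adjusted Mueller-Hinton with 20 μM apo-transferrin, compound serially halved from 64 μg/mL, read by eye after 18 h at 37 °C as lowest clear well. Inoculum: VIM-2-expressing E. coli J53 (pBC-SK(+) plasmid), adjusted to 0.5 McFarland.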

Structure (SMILES)	MIC [1]	MIC [2]	MIC [3]	MIC [4]	MIC [5]	MIC [6]	MIC [7]	MIC [8]	MIC [9]	MIC [10]	MIC [11]	MIC [12]	MIC [13]	MIC [14]	MIC [15]	MIC [16]	MIC [17]	MICs for an E. coli strain carrying the gene for carbapenemase VIM-1, in words ([17]; review of Tables 4-1 and 4-2)
CC(C)(O/N=C(\C(=O)N[C@@H]1C(=O)N2C(C(=O)O)=C(C=Cc3ccc(C[N+]4(C)CCc5c(Cl)c(O)c(O)c(Cl)c5C4)cc3)CS[C@H]12)c1csc(N)n1)C(=O)O (mixture of isomers) [Compound 429, 2-(4-((E/Z)-2-((6R,7R)-7-((Z)-2-(2-aminothiazol-4-yl)-2-(((2-carboxypropan-2-yl)oxy)imino)acetamido)-2-carboxy-8-oxo-5-thia-1-azabicyclo[4.2.0]oct-2-en-3-yl)vinyl)benzyl)-5,8 dichloro-6,7-dihydroxy-2-methyl-1,2,3,4-tetrahydroisoquinolin-2-ium]	0.25 µg/mL	0.25 µg/mL	≤ 0.06 µg/mL	0.5 µg/mL	0.5 µg/mL	0.5 µg/mL	4 µg/mL	≤ 0.06 µg/mL	≤ 0.06 µg/mL	1 µg/mL	0.5 µg/mL	2 µg/mL	0.25 µg/mL	4 µg/mL	1 µg/mL	> 64 µg/mL	≤ 0.06 µg/mL	low microgram/mL MICs
Cc1c[n+](Cc2ccc(C=CC3=C(C(=O)O)N4C(=O)[C@@H](NC(=O)/C(=N\OC(C)(C)C(=O)O)c5csc(N)n5)[C@H]4SC3)cc2)ccc1-c1ccc(O)c(O)c1 (mixture of isomers) [Compound 422, 1-(4-((E/Z)-2-((6R,7R)-7-((Z)-2-(2-aminothiazol-4-yl)-2-(((2-carboxypropan-2-yl)oxy)imino)acetamido)-2-carboxy-8-oxo-5-thia-1-azabicyclo[4.2.0]oct-2-en-3-yl)vinyl)benzyl)-4-(3,4-dihydroxyphenyl)-3-methylpyridin-1-ium]	8 µg/mL	4 µg/mL	2 µg/mL	4 µg/mL	≤ 0.06 µg/mL	8 µg/mL	8 µg/mL	2 µg/mL	≤ 0.06 µg/mL	16 µg/mL	2 µg/mL	1 µg/mL	2 µg/mL	16 µg/mL	8 µg/mL	> 64 µg/mL	1 µg/mL	
CC(C)(O/N=C(\C(=O)N[C@@H]1C(=O)N2C(C(=O)O)=C(C=Cc3ccc(C[n+]4ccc(NC(=O)c5ccc(O)c(O)c5)cc4)cc3)CS[C@H]12)c1csc(N)n1)C(=O)O (mixture of isomers) [Compound 427, 1-(4-((E/Z)-2-((6R,7R)-7-((Z)-2-(2-aminothiazol-4-yl)-2-(((2-carboxypropan-2-yl)oxy)imino)acetamido)-2-carboxy-8-oxo-5-thia-1-azabicyclo[4.2.0]oct-2-en-3-yl)vinyl)benzyl)-4-(3,4-dihydroxybenzamido)pyridin-1-ium]	0.06 µg/mL	4 µg/mL	≤ 0.06 µg/mL	0.06 µg/mL	0.25 µg/mL	0.5 µg/mL	4 µg/mL	≤ 0.06 µg/mL	≤ 0.06 µg/mL	8 µg/mL	0.25 µg/mL	0.25 µg/mL	1 µg/mL	16 µg/mL	4 µg/mL	> 64 µg/mL	1 µg/mL	
